Test results as given in the kinase profiling compilation of Christmann-Franck et al. (2016).

Assays:
Assay in all cases: radiometric filter-binding kinase assay, Kinase HotSpot
Details in all cases: compound 0.5 µM; ATP 10 µM
AURKA (human) = AURKA (human) (UniProt O14965)
AURKC (human) = AURKC (human) (UniProt Q9UQB9)
BRAF (human) = BRAF (human) (UniProt P15056)
CAMK2A (human) = CAMK2A (human) (UniProt Q9UQM7)
CDC42BPB (human) = CDC42BPB (human) (UniProt Q9Y5S2)
CDK4 CCND1 (human) = CDK4 CCND1 (human) (UniProt P24385+P11802)
CDK5 CDK5R1 p35 (human) = CDK5 CDK5R1 p35 (human) (UniProt Q00535+Q15078)
CSNK1G1 (human) = CSNK1G1 (human) (UniProt Q9HCP0)
CSNK2A2 (human) = CSNK2A2 (human) (UniProt P19784)
DYRK1A (human) = DYRK1A (human) (UniProt Q13627)
EPHB1 (human) = EPHB1 (human) (UniProt P54762)
EPHB2 (human) = EPHB2 (human) (UniProt P29323)
FRK (human) = FRK (human) (UniProt P42685)
GSK3A (human) = GSK3A (human) (UniProt P49840)
IGF1R (human) = IGF1R (human) (UniProt P08069)
INSRR (human) = INSRR (human) (UniProt P14616)
[1] = target: JAK1 JH1 catalytic (human) (UniProt P23458)
KDR (human) = KDR (human) (UniProt P35968)
LRRK2 (human) = LRRK2 (human) (UniProt Q5S007)
LTK (human) = LTK (human) (UniProt P29376)
MAP3K5 (human) = MAP3K5 (human) (UniProt Q99683)
MAP3K9 (human) = MAP3K9 (human) (UniProt P80192)
MAP4K2 (human) = MAP4K2 (human) (UniProt Q12851)
MAPK9 (human) = MAPK9 (human) (UniProt P45984)
MARK4 (human) = MARK4 (human) (UniProt Q96L34)
MERTK (human) = MERTK (human) (UniProt Q12866)
MET (human) = MET (human) (UniProt P08581)
MYLK2 (human) = MYLK2 (human) (UniProt Q9H1R3)
PBK (human) = PBK (human) (UniProt Q96KB5)
PKN2 (human) = PKN2 (human) (UniProt Q16513)
PLK1 (human) = PLK1 (human) (UniProt P53350)
SRMS (human) = SRMS (human) (UniProt Q9H3Y6)
STK24 (human) = STK24 (human) (UniProt Q9Y6E0)
WNK3 (human) = WNK3 (human) (UniProt Q9BYP7)
EPHA6 (human) = EPHA6 (human) (UniProt Q9UF33)
MYO3B (human) = MYO3B (human) (UniProt Q8WXR4)
PRKACG (human) = PRKACG (human) (UniProt P22612)
STK38 (human) = STK38 (human) (UniProt Q15208)
TLK2 (human) = TLK2 (human) (UniProt Q86UE8)
ULK3 (human) = ULK3 (human) (UniProt Q6PHR2)

Chain of MAPK9 (human) (P45984 whole entry, looked up): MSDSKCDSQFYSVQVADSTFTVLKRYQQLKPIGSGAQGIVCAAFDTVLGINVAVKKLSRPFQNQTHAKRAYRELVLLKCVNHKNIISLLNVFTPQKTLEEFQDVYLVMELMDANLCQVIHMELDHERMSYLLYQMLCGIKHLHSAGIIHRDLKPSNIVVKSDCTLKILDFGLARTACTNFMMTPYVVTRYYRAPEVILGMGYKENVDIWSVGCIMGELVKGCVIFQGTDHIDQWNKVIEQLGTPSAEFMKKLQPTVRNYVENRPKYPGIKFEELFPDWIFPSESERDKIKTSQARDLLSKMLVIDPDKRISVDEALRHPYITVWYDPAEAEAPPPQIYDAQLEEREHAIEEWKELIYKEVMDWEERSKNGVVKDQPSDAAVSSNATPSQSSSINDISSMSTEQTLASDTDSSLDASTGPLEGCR
Chain of CSNK1G1 (human) (Q9HCP0 whole entry, looked up): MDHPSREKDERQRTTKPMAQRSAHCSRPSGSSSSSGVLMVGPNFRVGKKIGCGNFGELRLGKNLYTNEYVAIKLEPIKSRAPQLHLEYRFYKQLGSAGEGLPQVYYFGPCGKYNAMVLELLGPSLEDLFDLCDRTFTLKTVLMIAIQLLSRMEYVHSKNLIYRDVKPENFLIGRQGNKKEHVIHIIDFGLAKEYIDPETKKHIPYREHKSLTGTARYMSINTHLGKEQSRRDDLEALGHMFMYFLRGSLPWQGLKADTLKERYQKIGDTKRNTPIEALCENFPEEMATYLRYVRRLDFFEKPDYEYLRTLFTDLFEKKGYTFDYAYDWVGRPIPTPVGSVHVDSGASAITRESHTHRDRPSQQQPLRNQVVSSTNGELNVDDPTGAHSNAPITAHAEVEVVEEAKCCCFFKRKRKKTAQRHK
Chain of SRMS (human) (Q9H3Y6 whole entry, looked up): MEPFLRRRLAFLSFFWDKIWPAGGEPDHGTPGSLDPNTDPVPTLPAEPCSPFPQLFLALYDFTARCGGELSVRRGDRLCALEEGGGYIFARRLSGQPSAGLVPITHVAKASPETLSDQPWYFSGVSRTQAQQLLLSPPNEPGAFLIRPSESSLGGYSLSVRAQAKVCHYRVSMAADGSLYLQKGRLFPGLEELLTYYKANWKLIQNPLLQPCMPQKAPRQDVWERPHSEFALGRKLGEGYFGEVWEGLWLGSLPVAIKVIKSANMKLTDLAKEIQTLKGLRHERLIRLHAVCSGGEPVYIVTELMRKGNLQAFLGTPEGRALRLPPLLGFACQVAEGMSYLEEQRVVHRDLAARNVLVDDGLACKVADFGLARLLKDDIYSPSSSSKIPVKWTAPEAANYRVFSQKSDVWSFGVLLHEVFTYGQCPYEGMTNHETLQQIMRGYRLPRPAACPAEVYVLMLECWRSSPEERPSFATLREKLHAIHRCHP
Chain of IGF1R (human) (P08069 whole entry, looked up): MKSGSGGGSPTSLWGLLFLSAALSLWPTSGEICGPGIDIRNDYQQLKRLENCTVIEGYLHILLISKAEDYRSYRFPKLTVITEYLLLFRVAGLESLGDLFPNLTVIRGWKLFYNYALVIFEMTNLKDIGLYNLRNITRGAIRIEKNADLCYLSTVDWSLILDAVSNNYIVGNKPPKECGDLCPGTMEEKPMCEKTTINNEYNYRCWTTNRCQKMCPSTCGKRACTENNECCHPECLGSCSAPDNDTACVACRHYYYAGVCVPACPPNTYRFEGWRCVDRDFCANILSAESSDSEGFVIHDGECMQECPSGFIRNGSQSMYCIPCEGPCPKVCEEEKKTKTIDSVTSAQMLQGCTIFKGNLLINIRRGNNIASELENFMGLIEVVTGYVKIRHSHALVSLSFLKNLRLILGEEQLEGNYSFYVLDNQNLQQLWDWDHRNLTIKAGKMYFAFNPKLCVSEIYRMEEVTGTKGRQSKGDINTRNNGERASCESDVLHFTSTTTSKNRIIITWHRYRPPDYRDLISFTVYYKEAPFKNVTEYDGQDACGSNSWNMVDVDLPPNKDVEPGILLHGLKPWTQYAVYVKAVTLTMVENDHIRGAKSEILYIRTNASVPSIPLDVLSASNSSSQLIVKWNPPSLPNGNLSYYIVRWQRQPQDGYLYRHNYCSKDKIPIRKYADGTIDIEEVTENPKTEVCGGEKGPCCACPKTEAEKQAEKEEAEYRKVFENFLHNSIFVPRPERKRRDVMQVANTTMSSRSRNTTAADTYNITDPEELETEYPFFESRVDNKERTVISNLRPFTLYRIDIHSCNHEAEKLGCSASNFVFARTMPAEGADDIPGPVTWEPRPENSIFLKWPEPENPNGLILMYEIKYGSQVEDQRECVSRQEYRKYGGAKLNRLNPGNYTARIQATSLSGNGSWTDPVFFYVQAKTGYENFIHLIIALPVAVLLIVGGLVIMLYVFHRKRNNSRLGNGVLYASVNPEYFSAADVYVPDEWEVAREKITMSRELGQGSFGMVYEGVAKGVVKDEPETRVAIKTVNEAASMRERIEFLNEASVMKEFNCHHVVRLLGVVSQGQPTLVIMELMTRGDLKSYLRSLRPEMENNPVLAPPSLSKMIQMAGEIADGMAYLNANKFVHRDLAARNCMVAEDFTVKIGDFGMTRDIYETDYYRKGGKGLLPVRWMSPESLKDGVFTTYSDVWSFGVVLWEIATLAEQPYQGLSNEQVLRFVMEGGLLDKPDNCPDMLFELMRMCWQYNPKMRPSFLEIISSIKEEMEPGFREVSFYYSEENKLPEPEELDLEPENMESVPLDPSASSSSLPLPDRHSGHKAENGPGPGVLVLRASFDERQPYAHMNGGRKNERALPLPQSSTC
Chain of AURKA (human) (O14965 whole entry, looked up): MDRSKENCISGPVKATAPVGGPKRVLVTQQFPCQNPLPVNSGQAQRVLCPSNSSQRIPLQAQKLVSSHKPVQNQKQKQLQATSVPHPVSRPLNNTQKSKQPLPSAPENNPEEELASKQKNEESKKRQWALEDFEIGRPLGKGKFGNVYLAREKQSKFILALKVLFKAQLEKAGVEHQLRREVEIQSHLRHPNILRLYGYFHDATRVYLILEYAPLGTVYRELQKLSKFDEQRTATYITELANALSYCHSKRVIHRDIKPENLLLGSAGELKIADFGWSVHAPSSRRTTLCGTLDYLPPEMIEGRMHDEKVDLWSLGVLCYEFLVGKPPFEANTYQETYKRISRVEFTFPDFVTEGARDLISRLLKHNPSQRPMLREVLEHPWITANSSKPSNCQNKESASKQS
Chain of LTK (human) (P29376 whole entry, looked up): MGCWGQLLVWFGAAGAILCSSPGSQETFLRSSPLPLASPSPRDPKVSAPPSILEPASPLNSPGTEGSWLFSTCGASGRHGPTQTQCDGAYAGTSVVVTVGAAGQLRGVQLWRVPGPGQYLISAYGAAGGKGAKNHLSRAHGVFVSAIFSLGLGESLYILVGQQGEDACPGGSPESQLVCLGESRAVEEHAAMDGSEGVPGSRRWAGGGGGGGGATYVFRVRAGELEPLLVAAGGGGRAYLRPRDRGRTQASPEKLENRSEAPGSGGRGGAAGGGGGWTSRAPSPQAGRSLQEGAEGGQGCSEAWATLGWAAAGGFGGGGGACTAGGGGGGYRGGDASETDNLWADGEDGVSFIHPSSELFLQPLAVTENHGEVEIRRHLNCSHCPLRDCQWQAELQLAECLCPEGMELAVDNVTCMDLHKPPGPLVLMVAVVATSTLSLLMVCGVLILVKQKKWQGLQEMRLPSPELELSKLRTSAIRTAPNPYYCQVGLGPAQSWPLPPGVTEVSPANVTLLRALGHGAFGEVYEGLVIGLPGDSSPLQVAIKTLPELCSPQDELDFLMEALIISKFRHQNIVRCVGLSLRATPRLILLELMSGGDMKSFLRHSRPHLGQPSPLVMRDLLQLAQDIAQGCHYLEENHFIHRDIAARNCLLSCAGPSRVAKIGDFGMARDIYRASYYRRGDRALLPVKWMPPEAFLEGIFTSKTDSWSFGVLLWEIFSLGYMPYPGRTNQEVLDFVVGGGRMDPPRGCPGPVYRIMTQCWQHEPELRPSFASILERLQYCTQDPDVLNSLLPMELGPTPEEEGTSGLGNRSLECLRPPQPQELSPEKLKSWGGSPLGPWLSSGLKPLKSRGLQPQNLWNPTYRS
Chain of PLK1 (human) (P53350 whole entry, looked up): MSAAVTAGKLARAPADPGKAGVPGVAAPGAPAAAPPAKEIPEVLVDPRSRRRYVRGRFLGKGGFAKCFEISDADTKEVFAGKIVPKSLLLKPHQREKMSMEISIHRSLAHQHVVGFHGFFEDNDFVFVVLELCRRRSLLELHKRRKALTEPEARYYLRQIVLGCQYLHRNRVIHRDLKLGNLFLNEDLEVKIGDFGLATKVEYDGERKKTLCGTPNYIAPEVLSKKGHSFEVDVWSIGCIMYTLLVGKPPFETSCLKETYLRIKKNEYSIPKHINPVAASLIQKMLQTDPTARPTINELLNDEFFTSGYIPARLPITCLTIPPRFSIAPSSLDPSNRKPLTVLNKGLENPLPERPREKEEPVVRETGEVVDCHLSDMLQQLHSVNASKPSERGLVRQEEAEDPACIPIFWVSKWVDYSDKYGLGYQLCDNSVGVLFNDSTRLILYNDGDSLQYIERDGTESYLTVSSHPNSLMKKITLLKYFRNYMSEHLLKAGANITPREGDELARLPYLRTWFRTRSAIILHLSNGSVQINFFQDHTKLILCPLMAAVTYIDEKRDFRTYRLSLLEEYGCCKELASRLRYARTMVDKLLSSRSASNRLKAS
Chain of CAMK2A (human) (Q9UQM7 whole entry, looked up): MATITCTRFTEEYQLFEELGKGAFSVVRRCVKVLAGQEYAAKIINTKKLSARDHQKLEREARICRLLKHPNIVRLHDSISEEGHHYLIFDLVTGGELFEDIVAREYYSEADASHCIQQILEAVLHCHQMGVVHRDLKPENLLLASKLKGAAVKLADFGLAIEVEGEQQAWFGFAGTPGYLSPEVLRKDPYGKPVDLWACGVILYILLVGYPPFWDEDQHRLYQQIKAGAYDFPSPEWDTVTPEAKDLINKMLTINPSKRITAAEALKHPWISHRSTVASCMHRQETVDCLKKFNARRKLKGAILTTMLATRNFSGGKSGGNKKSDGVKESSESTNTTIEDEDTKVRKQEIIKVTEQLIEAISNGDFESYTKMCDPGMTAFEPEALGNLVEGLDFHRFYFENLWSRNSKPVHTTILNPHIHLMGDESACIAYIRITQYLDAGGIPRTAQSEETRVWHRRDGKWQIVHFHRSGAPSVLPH

Compound	residual activity (AURKA (human)) [%]	residual activity (AURKC (human)) [%]	residual activity (CAMK2A (human)) [%]	residual activity (CDC42BPB (human)) [%]	residual activity (CDK4 CCND1 (human)) [%]	residual activity (CDK5 CDK5R1 p35 (human)) [%]	residual activity (CSNK1G1 (human)) [%]	residual activity (CSNK2A2 (human)) [%]	residual activity (DYRK1A (human)) [%]	residual activity (EPHB1 (human)) [%]	residual activity (EPHB2 (human)) [%]	residual activity (FRK (human)) [%]	residual activity (GSK3A (human)) [%]	residual activity (IGF1R (human)) [%]	residual activity (INSRR (human)) [%]	residual activity [1] [%]	residual activity (KDR (human)) [%]	residual activity (LRRK2 (human)) [%]	residual activity (LTK (human)) [%]	residual activity (MAP3K5 (human)) [%]	also measured
COc1ccc(OC)c2c(=S)c3ccccc3[nH]c12	116	88.2	100	106	93.5	86.4	120	87.1	103	87.1	94.9	88.8	104	97.2	88.7	102	108	98	84.5	115	residual activity (BRAF (human)): 88.5%; residual activity (MAP3K9 (human)): 102%; residual activity (MAP4K2 (human)): 96.5%; residual activity (MAPK9 (human)): 102%; residual activity (MARK4 (human)): 95.7%; residual activity (MERTK (human)): 86.7%; residual activity (MET (human)): 99.2%; residual activity (MYLK2 (human)): 95.7%; residual activity (PBK (human)): 107%; residual activity (PKN2 (human)): 105%; residual activity (PLK1 (human)): 93.6%; residual activity (SRMS (human)): 83.5%; residual activity (STK24 (human)): 78.9%; residual activity (WNK3 (human)): 99.1%
Oc1ccc(Nc2nc(-c3ccc(Cl)cc3)cs2)cc1	89.4	97	106	108	108	104	94.5	96.9	96.6	105	101	106	97.4	102	98.8	97.1	101	98.7	104	108	residual activity (EPHA6 (human)): 101%; residual activity (MAP3K9 (human)): 80.9%; residual activity (MAP4K2 (human)): 103%; residual activity (MAPK9 (human)): 98.3%; residual activity (MARK4 (human)): 103%; residual activity (MERTK (human)): 97.1%; residual activity (MET (human)): 99.4%; residual activity (MYLK2 (human)): 97.1%; residual activity (MYO3B (human)): 98.7%; residual activity (PBK (human)): 100%; residual activity (PKN2 (human)): 93.8%; residual activity (PLK1 (human)): 106%; residual activity (PRKACG (human)): 112%; residual activity (SRMS (human)): 106%; residual activity (STK24 (human)): 94.1%; residual activity (STK38 (human)): 98.2%; residual activity (TLK2 (human)): 121%; residual activity (ULK3 (human)): 94.4%; residual activity (WNK3 (human)): 98.7%
Nc1nnc2[nH]c3ccccc3nc1-2	111	90.8	99.5	100	92.4	88.7	99	94	95.1	92.3	103	96.8	91.6	97.5	89.3	99.8	95.8	90.5	89.4	103	residual activity (BRAF (human)): 102%; residual activity (MAP3K9 (human)): 97.7%; residual activity (MAP4K2 (human)): 91.7%; residual activity (MAPK9 (human)): 103%; residual activity (MARK4 (human)): 99.8%; residual activity (MERTK (human)): 92.9%; residual activity (MET (human)): 90.1%; residual activity (MYLK2 (human)): 90.5%; residual activity (PBK (human)): 106%; residual activity (PKN2 (human)): 98.7%; residual activity (PLK1 (human)): 94.5%; residual activity (SRMS (human)): 88.5%; residual activity (STK24 (human)): 89.1%; residual activity (WNK3 (human)): 98%
Cn1cnc2cc3c(Nc4cccc(Br)c4)ncnc3cc21	87.8	96.5	102	104	84	84.6	104	91.7	106	72.2	76.2	93.6	100	102	92.1	96.4	71.7	68.2	77.9	110	residual activity (BRAF (human)): 94.2%; residual activity (MAP3K9 (human)): 79.8%; residual activity (MAP4K2 (human)): 90.4%; residual activity (MAPK9 (human)): 92.3%; residual activity (MARK4 (human)): 105%; residual activity (MERTK (human)): 77.5%; residual activity (MET (human)): 101%; residual activity (MYLK2 (human)): 87.6%; residual activity (PBK (human)): 102%; residual activity (PKN2 (human)): 85.7%; residual activity (PLK1 (human)): 97.6%; residual activity (SRMS (human)): 84%; residual activity (STK24 (human)): 83.4%; residual activity (WNK3 (human)): 95.8%
CCN(CC)CCCCN1c2ccccc2Oc2ccc(Cl)cc21	93.3	99.3	104	99.7	107	90.3	104	94.6	104	110	107	98.4	108	89.4	102	105	93.7	115	98.4	106	residual activity (BRAF (human)): 98.8%; residual activity (MAP3K9 (human)): 95.7%; residual activity (MAP4K2 (human)): 110%; residual activity (MAPK9 (human)): 105%; residual activity (MARK4 (human)): 97.2%; residual activity (MERTK (human)): 95.5%; residual activity (MET (human)): 105%; residual activity (MYLK2 (human)): 104%; residual activity (PBK (human)): 105%; residual activity (PKN2 (human)): 72.4%; residual activity (PLK1 (human)): 109%; residual activity (SRMS (human)): 105%; residual activity (STK24 (human)): 90%; residual activity (WNK3 (human)): 108%
COc1ccc(CNC(=O)Nc2ncc([N+](=O)[O-])s2)cc1	97.4	98.4	98.8	93.5	97.3	96.4	97.8	92.9	95.6	102	88.4	97.2	13.5	101	99.2	94.2	85.7	87.7	101	87.8	residual activity (BRAF (human)): 93.4%; residual activity (MAP3K9 (human)): 101%; residual activity (MAP4K2 (human)): 113%; residual activity (MAPK9 (human)): 135%; residual activity (MARK4 (human)): 92.2%; residual activity (MERTK (human)): 91.1%; residual activity (MET (human)): 85.5%; residual activity (MYLK2 (human)): 98.5%; residual activity (PBK (human)): 110%; residual activity (PKN2 (human)): 101%; residual activity (PLK1 (human)): 102%; residual activity (SRMS (human)): 93.3%; residual activity (STK24 (human)): 93.6%; residual activity (WNK3 (human)): 101%
